Tested on: not listed separately
Assay: Antiproliferative activity against human OVCAR8 cells assessed as cell growth at 10^-4 M after 48 hrs by sulforhodamine B assay
Type: functional
Settings: OVCAR-8, 48 h, read-out: Activity
Work on `CNC(=O)c1cc(Oc2ccc3nc(NC(=O)c4cc(C(F)(F)F)cc(C(F)(F)F)c4)sc3c2)ccn1` yielded a growth at 100 µM of -61%.

Tested on: NCI-H460
Assay: Antiproliferative activity against human NCI-H460 cells assessed as cell growth at 10^-8 M after 48 hrs by sulforhodamine B assay
Type: functional
Settings: NCI-H460, 48 h, read-out: Activity
With `CNC(=O)c1cc(Oc2ccc3nc(NC(=O)c4cc(C(F)(F)F)cc(C(F)(F)F)c4)sc3c2)ccn1` the growth at 0.01 µM was 99%.

Tested on: K562
Assay: Antiproliferative activity against human K562 cells assessed as cell growth at 10^-8 M after 48 hrs by sulforhodamine B assay
Type: functional
Settings: K562, 48 h, read-out: Activity
In the case of `CNC(=O)c1cc(Oc2ccc3nc(NC(=O)c4cc(C(F)(F)F)cc(C(F)(F)F)c4)sc3c2)ccn1`, the growth at 0.01 µM is reported as 103%.

Tested on: not listed separately
Assay: Antiproliferative activity against human HCT116 cells assessed as cell growth at 10^-6 M after 48 hrs by sulforhodamine B assay
Type: functional
Settings: HCT-116, 48 h, read-out: Activity
Compound `CNC(=O)c1cc(Oc2ccc3nc(NC(=O)c4cc(C(F)(F)F)cc(C(F)(F)F)c4)sc3c2)ccn1` has a growth at 1 µM of 99%.

Tested on: NCI-H460
Assay: Antiproliferative activity against human NCI-H460 cells assessed as growth inhibition after 48 hrs by sulforhodamine B assay
Type: functional
Settings: NCI-H460, 48 h
For `CNC(=O)c1cc(Oc2ccc3nc(NC(=O)c4cc(C(F)(F)F)cc(C(F)(F)F)c4)sc3c2)ccn1`, the GI50 was 3.83 µM, the LC50 (concentration killing 50% of cells) was 58.9 µM and the TGI was 14.6 µM.

Tested on: T47D
Assay: Antiproliferative activity against human T47D cells assessed as cell growth at 10^-4 M after 48 hrs by sulforhodamine B assay
Type: functional
Settings: read-out: Activity
For `CNC(=O)c1cc(Oc2ccc3nc(NC(=O)c4cc(C(F)(F)F)cc(C(F)(F)F)c4)sc3c2)ccn1`, the growth at 100 µM was -40%.

Tested on: 786-0
Assay: Antiproliferative activity against human 786-0 cells assessed as cell growth at […] after 48 hrs by sulforhodamine B assay
Type: functional
Settings: 786-0, 48 h, read-out: Activity
Compound `CNC(=O)c1cc(Oc2ccc3nc(NC(=O)c4cc(C(F)(F)F)cc(C(F)(F)F)c4)sc3c2)ccn1` has a growth at 100 µM of -71%.

Tested on: not listed separately
Assay: Antiproliferative activity against human HOP92 cells assessed as cell growth at 10^-4 M after 48 hrs by sulforhodamine B assay
Type: functional
Settings: HOP-92, 48 h, read-out: Activity
`CNC(=O)c1cc(Oc2ccc3nc(NC(=O)c4cc(C(F)(F)F)cc(C(F)(F)F)c4)sc3c2)ccn1` gave a growth at 100 µM of -41%.

Tested on: not listed separately
Assay: Antiproliferative activity against human SNB19 cells assessed as growth inhibition after 48 hrs by sulforhodamine B assay
Type: functional
Settings: SNB-19, 48 h
For `CNC(=O)c1cc(Oc2ccc3nc(NC(=O)c4cc(C(F)(F)F)cc(C(F)(F)F)c4)sc3c2)ccn1`, the GI50 was 3.76 µM, the LC50 (50% lethal concentration) was > 100 µM and the TGI was 22.8 µM.

Tested on: not listed separately
Assay: Antiproliferative activity against human OVCAR3 cells assessed as growth inhibition after 48 hrs by sulforhodamine B assay
Type: functional
Settings: OVCAR-3, 48 h
Work on `CNC(=O)c1cc(Oc2ccc3nc(NC(=O)c4cc(C(F)(F)F)cc(C(F)(F)F)c4)sc3c2)ccn1` yielded a GI50 of 2.32 µM, an LC50 of 32.3 µM and a TGI of 6.64 µM.

Tested on: not listed separately
Assay: Antiproliferative activity against human PC3 cells assessed as cell growth at 10^-7 M after 48 hrs by sulforhodamine B assay
Type: functional
Settings: PC-3, 48 h, read-out: Activity
For `CNC(=O)c1cc(Oc2ccc3nc(NC(=O)c4cc(C(F)(F)F)cc(C(F)(F)F)c4)sc3c2)ccn1`, the growth at 0.1 µM was 94%.

Tested on: not listed separately
Assay: Antiproliferative activity against human UACC257 cells assessed as growth inhibition after 48 hrs by sulforhodamine B assay
Type: functional
Settings: UACC-257, 48 h
`CNC(=O)c1cc(Oc2ccc3nc(NC(=O)c4cc(C(F)(F)F)cc(C(F)(F)F)c4)sc3c2)ccn1` gave a GI50 of 2.89 µM and a TGI of 8.12 µM.

Same assay, conditions: UACC-257, 48 h, read-out: LC50 (the source's name)
In the case of `CNC(=O)c1cc(Oc2ccc3nc(NC(=O)c4cc(C(F)(F)F)cc(C(F)(F)F)c4)sc3c2)ccn1`, the CC50 is reported as > 100 µM.

Tested on: K562
Assay: Antiproliferative activity against human K562 cells assessed as growth inhibition after 48 hrs by sulforhodamine B assay
Type: functional
Settings: K562, 48 h
With `CNC(=O)c1cc(Oc2ccc3nc(NC(=O)c4cc(C(F)(F)F)cc(C(F)(F)F)c4)sc3c2)ccn1` the GI50 was 3.53 µM and the TGI was > 100 µM.

Same assay, conditions: K562, 48 h, read-out: LC50 (the source's name)
With `CNC(=O)c1cc(Oc2ccc3nc(NC(=O)c4cc(C(F)(F)F)cc(C(F)(F)F)c4)sc3c2)ccn1` the CC50 was > 100 µM.

Tested on: NCI-H226
Assay: Antiproliferative activity against human NCI-H226 cells assessed as cell growth at 10^-8 M after 48 hrs by sulforhodamine B assay
Type: functional
Settings: NCI-H226, 48 h, read-out: Activity
With `CNC(=O)c1cc(Oc2ccc3nc(NC(=O)c4cc(C(F)(F)F)cc(C(F)(F)F)c4)sc3c2)ccn1` the growth at 0.01 µM was 99%.

Tested on: SN12C
Assay: Antiproliferative activity against human SN12C cells assessed as cell growth at 10^-4 M after 48 hrs by sulforhodamine B assay
Type: functional
Settings: read-out: Activity
`CNC(=O)c1cc(Oc2ccc3nc(NC(=O)c4cc(C(F)(F)F)cc(C(F)(F)F)c4)sc3c2)ccn1` showed a growth at 100 µM of -53%.

Tested on: not listed separately
Assay: Antiproliferative activity against human Caki1 cells assessed as cell growth at 10^-7 M after 48 hrs by sulforhodamine B assay
Type: functional
Settings: CAKI-1, 48 h, read-out: Activity
`CNC(=O)c1cc(Oc2ccc3nc(NC(=O)c4cc(C(F)(F)F)cc(C(F)(F)F)c4)sc3c2)ccn1` gave a growth at 0.1 µM of 91%.

Reference: ChEMBL document CHEMBL3797052 (Eur J Med Chem, 2016)
